# Assay results as given in publication PMC9356065, “Novel psoralen derivatives as anti-breast cancer agents and their light-activated cytotoxicity against HER2 positive breast cancer cells” (Scientific Reports, 2022).
# Where a name gives a salt, the structure may show the parent alone. Read-outs that look alike come from different tables or passages of the source.
# Key:
# T47-D = assay: MTT cytotoxicity, 48 h, without UVA; type: cell-based, human; settings: for IC50 / inhibition at 50 µg/mL: Homo sapiens, T47D, light or radiation study, 48 h, without UVA; for IC50: hormone-dependent breast cancer, read-out: Cytotoxic activity T47-D IC50; for Selectivity Index (SI): SI = IC50 for MRC-5/IC50 for T47-D; for inhibition at 50 µg/mL: I = %inhibition lower than 50%, read-out: Cytotoxic activity T47-D %Inhibition
# Description: (§1) Additionally, the cytotoxicity towards normal cells, human embryonal lung fibroblast cell MRC-5 was also assessed.
# (§2) MDA-MB-231 (triple-negative breast cancer) was obtained from M.D. Anderson Cancer Center, Houston, TX, USA). T47-D (hormone-dependent breast carcinoma), SK-BR-3 (human HER2+ breast cancer), and MRC-5 (normal embryonic lung fibroblast) were obtained from the American Type Culture Collection (ATCC, Manassas, VA, USA).
# (§3) The cytotoxic effect of tested compounds was evaluated in two breast cancer cell lines, MDA-MB-231 and T47-D. Number of survival cells after exposure to tested compounds for 48 h was determined by MTT assay, as previously described.
# MDA-MB-231 [1] = assay: MTT cytotoxicity, 48 h, without UVA; type: cell-based; settings: Homo sapiens, MDA-MB-231, light or radiation study; for IC50: hormone-independent breast cancer, read-out: Cytotoxic activity MDA-MB-231 IC50; for inhibition at 50 µg/mL: I = %inhibition lower than 50%, read-out: Cytotoxic activity MDA-MB-231 %Inhibition
# Description: as §2, §3
# [2] = MTT cytotoxicity towards normal cells, 48 h; type: cell-based; settings: MRC-5 cells (normal embryonic lung fibroblasts), human embryonal lung fibroblast cell, without UVA, read-out: Cytotoxic activity MRC-5 IC50
# Description: as §1, §2, §3
# [3] = tested on: ERα activity in MCF-7 cells; set-up: method as in PMID 31673107; settings: read-out: IC50 antagonism of ERα activity in MCF-7 cells; cited from earlier work
# aromatase (CYP19) = molecular target: T1, aromatase (CYP19) (Homo sapiens, UniProt P11511); assay: Inhibition of aromatase (AIA); type: biochemical; settings: at 12.5 µM; I = %inhibition lower than 50%; read-out: Aromatase inhibitory activity %Inhibition
# T1 sequence (P11511 1-503): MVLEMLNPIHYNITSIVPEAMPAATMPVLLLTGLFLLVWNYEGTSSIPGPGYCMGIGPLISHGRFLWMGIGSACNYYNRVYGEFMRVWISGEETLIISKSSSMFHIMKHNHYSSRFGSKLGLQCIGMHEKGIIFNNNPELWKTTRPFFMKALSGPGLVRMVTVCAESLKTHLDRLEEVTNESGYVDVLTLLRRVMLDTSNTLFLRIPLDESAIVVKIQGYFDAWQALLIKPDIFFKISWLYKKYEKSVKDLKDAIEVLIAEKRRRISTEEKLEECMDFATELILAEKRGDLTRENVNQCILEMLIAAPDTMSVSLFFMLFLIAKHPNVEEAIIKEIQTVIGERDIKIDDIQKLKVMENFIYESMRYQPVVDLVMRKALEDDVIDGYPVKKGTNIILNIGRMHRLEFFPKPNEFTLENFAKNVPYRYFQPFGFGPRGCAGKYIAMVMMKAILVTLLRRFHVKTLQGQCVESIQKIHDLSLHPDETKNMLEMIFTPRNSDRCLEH
# Description: Estrogens are the critical risk factor for breast cancer initiation and progression and the aromatase enzyme involves in the final step conversion of androgens to estrogens[21],[22]. […] In this study, the synthesized psoralen derivatives were also tested for aromatase inhibitory activity (AIA) which is considered to be one of chemopreventive mechanisms for hormone dependent breast cancer.
# Inhibition of the aromatase was performed using the method designed by Stresser et al.[39].
# [4] = tested on: differentiated HL-60 cells; assay: Inhibition of TPA-induced superoxide anion radical generation (HL-60 Antioxidant); type: cell-based, human; settings: screening concentration 100 µM; for inhibition at 100 µM: Homo sapiens, HL-60, read-out: HL-60 Antiox. %Inh
# Source text: Inhibition of 12-O-tetradecanoylphorbol-13-acetate (TPA)-induced superoxide anion radical generation in differentiated HL-60 cells (HL-60 Antioxidant) TPA-induced superoxide anion radical formation was detected in differentiated HL-60 cells by photometric determination of cytochrome c reduction as previously described by Gerhäuser et al., 2003.ii Superoxide dismutase (SOD;15U) was a positive control. […]
# xanthine oxidase = xanthine oxidase (Homo sapiens, UniProt P47989); assay: Inhibition of xanthine oxidase (IXO); type: biochemical; settings: for inhibition at 500 µM: screening concentration 500 µM, read-out: IXO %Inh
# Description: 1. […]
# Inhibition of xanthine oxidase (IXO)
# Xanthine oxidase activity was determined by quantifying the amount of uric acid produced
# from xanthine. […]
# [5] = Inhibition of superoxide radical formation by xanthine/xanthine oxidase (XXO); type: biochemical; settings: for XXO %Inh: screening concentration 500 µM; for IC50: read-out: XXO IC50
# Source text: 1. […]
# [6] = Scavenging of diphenyl-picryl-hydrazyl radicals (DPPH); settings: for IC50: read-out: DPPH IC50; for DPPH %Inh: screening concentration 250 µM
# Source text: 1. Chemoprevention activity
# MDA-MB-231 [7] = tested on: MDA-MB-231; set-up: method as in doi:10.1007/s00044-014-1312-6; settings: previously reported; cited from earlier work
# MCF-7 = settings: Fig. 1d; cited from earlier work
# SK-BR-3 [8] = assay: Dark and light-activated (UVA) cytotoxicity, MTT; type: cell-based, human; settings: Homo sapiens, SK-BR-3, light or radiation study; irradiation with UVA (2.0 J cm^−2); HER2+ breast cancer
# Description: (§4) The selected compounds were screened for their IC50 values against both HER2+ breast cancer (SK-BR-3), and HER2− breast cancer (MDA-MB-231) in both dark and light-activated conditions (Table 2). Additionally, a negative control study was also performed with SK-BR-3 and MDA-MB-231 cells in the absence of tested compound under UVA irradiation (See Fig S7., Supporting Information).
# (§5) SK-BR-3 and MDA-MB-231 cells were seeded into 96-well cell culture plates at 5 × 10^3 cells/well and incubated for 24 h at 37 °C under 5% CO2. After that, the cells were treated with 50 μM of psoralen derivatives in DMEM with 10% FBS and the cells were continued incubation for another 4 h. After incubation, the cells were washed with PBS (3 times) and then irradiated by a 365 nm lamp with the light intensity of 2.0 J cm^−2 for 12.5 min before re-incubation for another 72 h. After incubation, the cell was treated with methylthiazolyldiphenyl-tetrazolium bromide (MTT reagent 200 μL, 0.5 mg mL^−1, Sigma-Aldrich) for 2 h. After reagent removal, DMSO was added to dissolve the formazan product and the cell viabilities were determined through UV–Vis absorption of the resulting formazan at wavelength 560 nm using a microplate reader (BMG Labtech/SPECTROstar Nano). The cell morphology images were captured by using a light microscope (Microscope Nikon, inverted digital) at 20X magnification prior to treating with MTT reagent.
# MDA-MB-231 [9] = assay: Dark and light-activated (UVA) cytotoxicity, MTT; type: cell-based; settings: Homo sapiens, dark, HER2− breast cancer
# MDA-MB-231 [10] = assay: Dark and light-activated (UVA) cytotoxicity, MTT; type: cell-based; settings: Homo sapiens, MDA-MB-231, light or radiation study; irradiation with UVA (2.0 J cm^−2); HER2− breast cancer
# Description: as §4, §5
# SK-BR-3 [11] = assay: Dark and light-activated (UVA) cytotoxicity, MTT; type: cell-based; settings: Homo sapiens, dark, HER2+ breast cancer
# SK-BR-3 cells = assay: Cell morphology by light microscope; type: cell-based, human; settings: 48 h; for morphology of SK-BR-3 cells under light activation: UVA 2.0 J cm^−2
# Description: as §5, with “After incubation, the cells were washed with PBS (3 times) and then irradiated by a 365 nm lamp with the light intensity of 2.0 J cm^−2 for 12.5 min before re-incubation for another 72 h.” left out
# Sequence of xanthine oxidase (P47989 whole entry, species assumed): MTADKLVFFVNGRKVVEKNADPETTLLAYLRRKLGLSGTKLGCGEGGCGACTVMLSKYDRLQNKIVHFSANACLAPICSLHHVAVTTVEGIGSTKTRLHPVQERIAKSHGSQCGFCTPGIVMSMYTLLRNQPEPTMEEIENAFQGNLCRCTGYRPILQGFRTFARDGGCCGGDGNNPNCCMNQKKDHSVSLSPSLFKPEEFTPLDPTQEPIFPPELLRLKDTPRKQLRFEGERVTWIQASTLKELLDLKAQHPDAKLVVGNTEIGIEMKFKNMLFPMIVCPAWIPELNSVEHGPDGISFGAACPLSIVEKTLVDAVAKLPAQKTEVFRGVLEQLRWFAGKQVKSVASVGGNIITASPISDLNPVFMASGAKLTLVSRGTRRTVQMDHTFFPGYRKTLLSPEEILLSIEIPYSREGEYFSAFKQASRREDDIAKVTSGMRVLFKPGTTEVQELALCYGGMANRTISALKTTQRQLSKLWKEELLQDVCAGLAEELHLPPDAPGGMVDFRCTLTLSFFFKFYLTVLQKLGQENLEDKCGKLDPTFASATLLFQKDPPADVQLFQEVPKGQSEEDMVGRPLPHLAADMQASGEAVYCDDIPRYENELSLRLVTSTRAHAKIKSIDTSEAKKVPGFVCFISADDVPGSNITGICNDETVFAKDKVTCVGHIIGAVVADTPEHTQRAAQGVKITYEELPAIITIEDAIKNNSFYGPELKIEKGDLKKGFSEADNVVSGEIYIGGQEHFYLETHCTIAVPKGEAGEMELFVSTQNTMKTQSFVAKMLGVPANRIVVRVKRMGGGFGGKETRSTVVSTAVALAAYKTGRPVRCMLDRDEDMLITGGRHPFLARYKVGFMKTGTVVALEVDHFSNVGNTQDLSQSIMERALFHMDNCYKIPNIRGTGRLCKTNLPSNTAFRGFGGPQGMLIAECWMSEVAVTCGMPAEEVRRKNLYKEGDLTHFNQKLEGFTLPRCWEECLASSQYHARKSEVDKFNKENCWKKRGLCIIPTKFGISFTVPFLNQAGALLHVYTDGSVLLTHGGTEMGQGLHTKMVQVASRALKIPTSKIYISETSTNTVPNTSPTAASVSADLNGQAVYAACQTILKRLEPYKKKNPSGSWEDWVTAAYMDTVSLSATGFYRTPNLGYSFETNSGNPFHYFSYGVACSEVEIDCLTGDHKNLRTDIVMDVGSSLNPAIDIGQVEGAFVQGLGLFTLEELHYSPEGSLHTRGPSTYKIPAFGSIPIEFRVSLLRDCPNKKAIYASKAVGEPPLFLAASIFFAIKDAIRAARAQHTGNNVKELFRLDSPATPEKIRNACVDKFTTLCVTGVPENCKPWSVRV
compound,measurement,setting,value
"COc1cccc2c1C(=O)c1c(O)c3c(c(O)c1C2=O)C[C@@](O)(C(=O)CO)C[C@@H]3O[C@H]1C[C@H](N)[C@H](O)[C@H](C)O1 [Doxorubicin, reference compound]",IC50,T47-D,1.46 ± 2.79 µM
same,Selectivity Index (SI),T47-D,2.1
same,IC50,MDA-MB-231 [1],3.16 ± 0.26 µM
same,IC50 at 48 h,[2],3.07 ± 0.22 µM
O=c1ccc2cc3ccoc3c(O)c2o1 [xanthotoxol],IC50,[3],0.7 µM
"COc1c2occc2c(NCc2ccccc2)c2ccc(=O)oc12 [4a, 4-(Benzylamino)-9-methoxy-7H-furo[3,2-g]chromen-7-one]",inhibition at 12.5 µM,aromatase (CYP19),46%
same,IC50,T47-D,31.1 ± 1.54 µM
same,Selectivity Index (SI),T47-D,> 5.0
same,melting point,,168 to 169 °C
same,inhibition at 100 µM,[4],7%
same,IC50,xanthine oxidase,27.4 µM
same,IC50,MDA-MB-231 [1],> 100 µM
same,XXO %Inh,[5],34%
same,IC50,[6],145 µM
COc1c2occc2c(NCc2ccccc2)c2ccc(=O)oc12 [Vb],IC50,MDA-MB-231 [7],3 µM
same,IC50,MCF-7,1.09 µM
O=c1ccc2cc3ccoc3cc2o1 [psoralen],IC50,[3],24.1 µM
COc1c2occc2c(NC(=O)c2cccc3ccccc23)c2ccc(=O)oc12 [VIb],IC50,MDA-MB-231 [7],100 µM
same,IC50 (MCF-7),MCF-7,Inactive
"CC/C(=C(\c1ccccc1)c1ccc(OCCN(C)C)cc1)c1ccccc1 [Tamoxifen citrate, reference compound]",IC50,T47-D,20.9 ± 1.31 µM
same,IC50,MDA-MB-231 [1],66 ± 2.48 µM
same,IC50 at 48 h,[2],67.6 ± 10.5 µM
C=CCNc1c2ccoc2c(OC)c2oc(=O)ccc12 [Va],IC50,MDA-MB-231 [7],5 µM
same,IC50,MCF-7,3.87 µM
O=c1ccc2ccc3occc3c2o1 [angelicin],IC50,[3],11 µM
"COc1c2occc2c(NC(=O)C(C)C)c2ccc(=O)oc12 [3k, N-(9-Methoxy-7-oxo-7H-furo[3,2-g]chromen-4-yl)isobutyramide]",inhibition at 12.5 µM,aromatase (CYP19),8%
same,inhibition at 50 µg/mL,T47-D,36%
same,melting point,,234 to 235 °C
same,inhibition at 100 µM,[4],11%
same,inhibition at 500 µM,xanthine oxidase,17%
same,inhibition at 50 µg/mL,MDA-MB-231 [1],4%
same,IC50,SK-BR-3 [8],66.1 ± 5.21 µM
same,IC50,[5],394 µM
same,DPPH %Inh,[6],2%
same,IC50,MDA-MB-231 [9],> 100 µM
same,IC50,MDA-MB-231 [10],> 100 µM
same,IC50,SK-BR-3 [11],> 100 µM
"CCC(=O)Nc1c2ccoc2c(OC)c2oc(=O)ccc12 [3j, N-(9-Methoxy-7-oxo-7H-furo[3,2-g]chromen-4-yl)propionamide]",inhibition at 12.5 µM,aromatase (CYP19),8%
same,morphology of SK-BR-3 cells under light activation,SK-BR-3 cells,significantly changed
same,morphology of SK-BR-3 cells under dark condition,SK-BR-3 cells,maintained morphology of intact cells
same,inhibition at 50 µg/mL,T47-D,22%
same,melting point,,233 to 234 °C
same,inhibition at 100 µM,[4],11%
same,inhibition at 500 µM,xanthine oxidase,29%
same,inhibition at 50 µg/mL,MDA-MB-231 [1],3%
same,IC50,SK-BR-3 [8],3.05 ± 1.02 µM
same,IC50,[5],187 µM
same,DPPH %Inh,[6],2%
same,IC50,MDA-MB-231 [9],> 100 µM
same,IC50,MDA-MB-231 [10],> 100 µM
same,IC50,SK-BR-3 [11],> 100 µM
"COc1c2occc2c(NS(=O)(=O)c2ccccc2)c2ccc(=O)oc12 [compound 5, N-(9-Methoxy-7-oxo-7H-furo[3,2-g]chromen-4-yl)benzenesulfonamide]",inhibition at 12.5 µM,aromatase (CYP19),33%
same,IC50,T47-D,87.9 ± 6.34 µM
same,Selectivity Index (SI),T47-D,> 1.5
same,melting point,,208 to 209 °C
same,inhibition at 100 µM,[4],32%
same,inhibition at 500 µM,xanthine oxidase,21%
same,inhibition at 50 µg/mL,MDA-MB-231 [1],36%
same,IC50,[5],90.7 µM
same,DPPH %Inh,[6],8%
"COc1c2c(c(NC(=S)Nc3ccccc3)c3ccoc13)C(OC)CC(=O)O2 (stereo not shown) [compound 6, 1-(5,9-Dimethoxy-7-oxo-6,7-dihydro-5H-furo[3,2-g]chromen-4-yl)-3-phenylthiourea]",inhibition at 12.5 µM,aromatase (CYP19),18%
same,IC50,T47-D,> 100 µM
same,melting point,,191 to 192 °C
same,HL-60 Antiox. %Inh,[4],Toxic
same,inhibition at 500 µM,xanthine oxidase,48%
same,IC50,MDA-MB-231 [1],91.9 ± 4.49 µM
same,XXO %Inh,[5],24%
same,IC50,[6],52.6 µM
CC(C)=CCOc1c2ccoc2cc2oc(=O)ccc12 [isoimperatorin],IC50,[3],54.3 µM
"COc1c2occc2c(NC(=O)c2ccco2)c2ccc(=O)oc12 [3g, N-(9-Methoxy-7-oxo-7H-furo[3,2-g]chromen-4-yl)furan-2-carboxamide]",inhibition at 12.5 µM,aromatase (CYP19),16%
same,morphology of SK-BR-3 cells under light activation,SK-BR-3 cells,significantly changed
same,morphology of SK-BR-3 cells under dark condition,SK-BR-3 cells,maintained morphology of intact cells
same,inhibition at 50 µg/mL,T47-D,24%
same,melting point,,227 to 228 °C
same,inhibition at 100 µM,[4],17%
same,inhibition at 50 µg/mL,MDA-MB-231 [1],0.5%
same,IC50,SK-BR-3 [8],2.71 ± 0.84 µM
same,DPPH %Inh,[6],3%
same,IC50,MDA-MB-231 [9],> 100 µM
same,IC50,MDA-MB-231 [10],> 100 µM
same,IC50,SK-BR-3 [11],> 100 µM
"COc1c2occc2c(NC(=O)C23CC4CC(CC(C4)C2)C3)c2ccc(=O)oc12 [3n, (3r,5r,7r)-N-(9-Methoxy-7-oxo-7H-furo[3,2-g]chromen-4-yl)adamantane-1-carboxamide]",inhibition at 12.5 µM,aromatase (CYP19),5%
same,IC50,T47-D,43.06 ± 0.09 µM
same,Selectivity Index (SI),T47-D,> 3.0
same,melting point,,240 to 242 °C
same,inhibition at 100 µM,[4],8%
same,IC50,MDA-MB-231 [1],> 100 µM
same,XXO %Inh,[5],47%
same,IC50,MDA-MB-231 [7],2 µM
same,DPPH %Inh,[6],1%
same,IC50,MCF-7,0.48 µM
